Tests used:
[1] = tested on: HeLa (cervical adenocarcinoma) cells; test: IC50 (viability) in HeLa cells; type: cell-based, human
Description: 19 variants with different structural modifications have been made. […] In particular, it is shown that C75 causes death in multiple cancer cells with IC50 values in the 100 nM range, including breast cancers (MCF7, BT549), lung cancer (A549), colorectal cancer (HCT116) in addition to HeLa cells (cervical cancer).

MCF-7 cells = test: Mitotic spindle phenotype in MCF-7 cells; type: cell-based, human; conditions: MCF-7, 300 nM, 6-8 hours
Description: (§1) FIG. 2A) is a line graph showing the percentage of HCT116 (p53−/−) cells, A549 cells, HeLa cells and H1299 cells in mitosis after treatment with various concentrations of C75 for one population doubling time. All of the cell lines show an increase in the proportion of mitotic cells after treatment with 200 nM C75. The bars indicate standard deviation. […] While the mitotic spindles were not dramatically altered by C75 in HFF1 cells, they were monopolar (as shown) or fragmented in the other cell types. […] The mitotic spindles were more strongly fragmented after C75 treatment in these cells vs. the cells in FIG. 2B). […] While mitotic spindles recovered bipolarity after removing nocodazole, they remained multipolar after removing C75. FIG. 2F) is a series of time-lapse images of a live HeLa cell expressing GFP:tubulin after treatment with C75 as shown in 2D) and 2E). The scale bar for all cells is 10 μm. FIG. 2G) is a schematic showing the putative target for C75. […]
(§2) C75 was also tested for efficacy in different cancer cell lines. […] To further assess the role of C75 in affecting centrosomes, HeLa cells were treated with C75 for a short period of time (5 minutes), then C75 was removed and the cells were analyzed for spindle phenotypes (schematic in FIG. 2D). […]

HCT116 cells = test: Mitotic spindle phenotype and centrosome fragment distance in HCT116 cells; type: cell-based
Description: FIG. 2A) is a line graph showing the percentage of HCT116 (p53−/−) cells, A549 cells, HeLa cells and H1299 cells in mitosis after treatment with various concentrations of C75 for one population doubling time. All of the cell lines show an increase in the proportion of mitotic cells after treatment with 200 nM C75. The bars indicate standard deviation. […] While the mitotic spindles were not dramatically altered by C75 in HFF1 cells, they were monopolar (as shown) or fragmented in the other cell types. […] The mitotic spindles were more strongly fragmented after C75 treatment in these cells vs. the cells in FIG. 2B). […] While mitotic spindles recovered bipolarity after removing nocodazole, they remained multipolar after removing C75. FIG. 2F) is a series of time-lapse images of a live HeLa cell expressing GFP:tubulin after treatment with C75 as shown in 2D) and 2E). The scale bar for all cells is 10 μm. FIG. 2G) is a schematic showing the putative target for C75. Healthy cells have two centrosomes that separate and form a bipolar spindle, while cancer cells have aberrant centrosomes that cluster to form ‘pseudo’ bipolar spindles, and C75 may target this process and their integrity.
FIG. 3A) is a line graph showing the percentage of mitotic HeLa or HFF1 cells treated with a range of paclitaxel (Taxol™; tubulin-targeting drug) concentrations+/−C75 as indicated. The bars indicate standard deviation. FIG. 3B) is a series of bar graphs showing the proportion of HCT116 cells that have monopolar spindles, bipolar spindles with aligned chromosomes, bipolar spindles with misaligned chromosomes and multipolar/fragmented spindles after treatments as shown. Treatments include DMSO (control), varying concentrations of paclitaxel and/or varying concentrations of C75 after 7 hours. While treatment of HCT116 cells with 2.5 nM paclitaxel caused a threshold of mitotic spindle phenotypes, adding increasing concentrations of C75 in combination with 2.5 nM paclitaxel caused the phenotypes to progressively worsen. FIG. 3C) is bar graph showing the average distance between centrosome fragments in HCT116 cells after treatments as shown. While centrosome fragments moved closer together with increased concentrations of paclitaxel, they moved further apart with increased concentrations of C75. […] FIG. 3E) is a line graph showing the percentage of mitotic HeLa or HFF1 cells treated with a range of nocodazole concentrations+/−C75 as indicated. The bars indicate standard deviation. […]
as §2

A549 cells = test: Mitotic arrest (percentage of cells in mitosis) in A549 cells; type: cell-based, human; conditions: A549, within one population doubling time
Description: as §1, §2

SMILES: COc1ccc(S(=O)(=O)N2Cc3ccccc3-c3sc(Br)cc32)cc1 [Compound C75]
- IC50 ([1]; Homo sapiens, HeLa cells, cells printed in nM): 27 nM
- efficacy (effect on viability) in cancer cells vs. non-cancer cells ([1]; comparison of Table 3 IC50 values, cancer vs. non-cancer cells): higher efficacy
- mitotic spindle phenotype (MCF-7 cells): mix of monopolar, bipolar and multipolar spindles
- mitotic spindle phenotype (HCT116 cells; HCT116 (p53-/-), 300 nM, 6-8 hours): most of the spindles were severely fragmented
- effect of C75 on phenotypes caused by paclitaxel (HCT116 cells; HCT116, 2.5 nM paclitaxel + increasing C75, 7 hours): enhances the phenotypes
- change of centrosome fragment distance when paclitaxel was combined with C75 (HCT116 cells; HCT116, paclitaxel + C75): significant increase in fragment distance
- concentration causing mitotic arrest (A549 cells): 100 to 200 nM

Source: US11034702B2, “Thienoisoquinolines and their derivatives for the treatment of cancer” (VALORBEC, SOCIÉTÉ EN COMMANDITE, priority 2016, dated 2021)
